Results published in patent publication US4755526A, “Method of inhibiting aromatase” (Eli Lilly and Company, priority 1984, dated 1988).
Counter-ions that a name gives are not always drawn.

What was measured:
[1] = test system: estrogen synthesis; assay: Estrogen synthesis inhibition in rats (uterine weight and ovarian steroid concentrations); format: in vivo, female Wistar rats; settings: for Mean Steroid Concentration, estrone / Mean Steroid Concentration, estradiol / Mean Steroid Concentration, estriol: ovaries; for Mean Uterine Weight: testosterone propionate-treated rats
Protocol: Test compounds were administered for seven days either daily by gavage in corn oil or as a component of the diet. Control animals received either corn oil or diet without the test compound. Beginning on the fourth day of the test, all animals treated with the test compound and one half of the control animals were given a subcutaneous injection of 1.0 mg of testosterone propionate in corn oil. The remaining control animals received only an equivalent volume of corn oil.
After two hours, the animals were killed by decapitation. Uteri were isolated, trimmed of extraneous connective tissue, and weighed. […] In the control animals treated with testosterone propionate, estrogens produced by aromatization stimulated the uterus resulting in an increase in weight.
The ovarian steroids were extracted with 1.5 ml of 9:1 (v/v) toluene/ethanol to which had been added 25 to 100 mcg each of unlabelled estradiol, estriol, and estrone, and approximately 1000 dpm of [^14 C]-estradiol. The samples were vortexed, centrifuged at 500×g for 10 minutes, and the organic phase was transferred to a conical vial. Two additional extractions were performed on the residue in the same way. The pooled organic extracts were evaporated for subsequent thin-layer chromatography.
Ovarian proteins were precipitated by the addition of 5.0 ml of ethanol to the remaining aqueous phase. After an overnight incubation at 4° C., the samples were centrifuged at 1500×g for 10 minutes. The supernatant was discarded, and the pellet was dissolved in 0.3N potassium hydroxide.
The organic residue from each above extraction was redissolved in 9:1 (v/v) dichloromethane/methanol. The solution of each sample was applied to separate silica gel thin layer chromatography plates which contained a fluorescent indicator. The plates were developed in the first dimension with 160:38:1.5:0.5 (v/v/v/v) dichloromethane/ethyl acetate/methanol/acetic acid to within 3 cm of the top of the plate. After air-drying, the plate was developed in the second dimension with 180:19:1 (v/v/v) dichloromethane/methanol/ammonium hydroxide. The plate was air-dried and viewed under 254 nm UV light.
The visible spots were marked and the plates were sprayed with primulin (0.001% in 4:1 v/v acetone/water) according to the method of Wright, J. Chromatography, 59, 220 (1971) which allowed for the identification of additional steroids under 365 nm UV light. The spots were scraped from the plate using a glass wool plugged Pasteur pipet attached to a vacuum line. The steroids were eluted directly into scintillation vials by the addition of 0.2 ml of dichloromethane followed by two washes each of 2.0 ml of methanol. The organic solvent was evaporated and 10.0 ml of scintillation fluid (Beckman Ready Solv-NA) was added to the vials. Samples were analyzed by liquid scintillation spectrometry. Corrections were made based on the recoveries of the [^14 C]-steroid. Steroid concentrations are expressed as femtomoles per milligram protein.

[2] = test system: DMBA-induced mammary tumors; assay: DMBA-induced mammary tumor inhibition; format: in vivo, female Sprague-Dawley rats
Protocol: Mammary tumors were produced in female Sprague-Dawley rats which were 50-60 days old by the gavage administration of 20 mg of 7,12-dimethylbenz[a]anthracene (DMBA). About six weeks after DMBA administration, the mammary glands were palpated at weekly intervals for the appearance of tumors. Whenever one or more tumors appeared and were measurable in an animal, that animal was selected for experimentation. […] Each control and test group contained 8 animals. The test compound was administered either mixed into the food at a concentration of 300 ppm (corresponding to an appropriate daily dose of 30 mg/kg) or the compounds were dissolved or suspended in corn oil and administered once daily by gavage. Every experiment included a group of control rats having tumors and were either given food without the compound admixed or corn oil vehicle by gavage, depending on how the test compound was administered. […] The area of each tumor was calculated by multiplying the shortest and longest diameters of the tumor. The treatment and measurement of animals continued for 4-8 weeks at which time the final areas of the tumors were determined. For each compound (and control) at each dose level, the change in the mean tumor area was determined. The mean change was analyzed for its significance using Dunnett's t-test.

[3] = test system: breast cancer; settings: Cancer Research, Vol. 42, Suppl. 8: 3261s (1982); cited from earlier work
[4] = molecular target: T1, aromatase (Rattus norvegicus, UniProt P22443); assay: Aromatase inhibition in the rat ovarian microsome assay; format: biochemical; settings: EC50: concentration required to achieve 50% inhibition of aromatase activity, substrate (androstenedione) concentration 0.1 μM
T1 construct: ovarian microsomes are obtained from rats treated with pregnant mares serum gonadotropin; from tissue; host or cells: ovarian microsomes of rats treated with pregnant mares serum gonadotropin
T1 sequence (P22443 1-508): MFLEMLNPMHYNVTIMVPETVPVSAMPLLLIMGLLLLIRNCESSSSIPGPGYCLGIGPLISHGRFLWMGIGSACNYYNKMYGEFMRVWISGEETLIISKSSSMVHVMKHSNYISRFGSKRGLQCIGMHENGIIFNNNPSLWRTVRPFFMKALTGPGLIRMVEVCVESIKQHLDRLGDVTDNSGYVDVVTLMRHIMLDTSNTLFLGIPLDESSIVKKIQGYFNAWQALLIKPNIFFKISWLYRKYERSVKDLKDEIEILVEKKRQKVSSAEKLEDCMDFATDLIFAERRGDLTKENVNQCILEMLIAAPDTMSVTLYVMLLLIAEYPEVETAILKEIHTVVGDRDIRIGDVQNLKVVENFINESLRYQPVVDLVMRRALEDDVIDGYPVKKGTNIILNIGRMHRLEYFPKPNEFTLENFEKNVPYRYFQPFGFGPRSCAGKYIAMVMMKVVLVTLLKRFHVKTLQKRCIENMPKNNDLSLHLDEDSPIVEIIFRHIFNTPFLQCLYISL
Protocol: In this test system, ovarian microsomes are obtained from rats treated with pregnant mares serum gonadotropin. Test compounds are added to reaction vials containing 0.1 μM 4-androstene-3,17-dione, 100,000 dpm 1,2[^3 H]-androstenedione, the microsomes and a NADPH generating system. The concentrations of the inhibitors tested ranged between 0.005 and 10 μM.

[5] = 30 ppm in feed (approximately 3 mg/kg/day)
[6] = 300 ppm in feed (approximately 30 mg/kg/day)
[7] = 300 ppm in diet, 4 weeks, control 62.8 to 1087.3 (Test II), 1087.0 (Test III)
[8] = 200 ppm in feed (approximately 20 mg/kg/day)

Structure (SMILES)	Mean Steroid Concentration, estrone [1, 5]	Mean Uterine Weight [1, 5] [mg]	Mean Uterine Weight [1, 6] [mg]	Mean Steroid Concentration, estradiol [1, 5]	Mean Steroid Concentration, estriol [1, 5]	Mean Steroid Concentration, estradiol [1, 6]	Mean Steroid Concentration, estriol [1, 6]	Mean Steroid Concentration, estrone [1, 6]	EC50 [4] [nM]	further results
Clc1ccc(C(c2ccc(Cl)cc2)n2ccnc2)cc1 [1-[bis(4-chlorophenyl)methyl]imidazole]	0.09 femtomoles per milligram of protein	85.3	66.0							Mean Tumor Area, Start ([2]; 5 mg/kg daily by gavage, 4 weeks test): 44.8 mm^2; Mean Tumor Area, Finish ([2]; 5 mg/kg daily by gavage, 4 weeks, control 54.8 to 914.0): 346.0 mm^2; Mean Tumor Area, Start ([2]; 30 mg/kg daily by gavage, 4 weeks test): 62.4 mm^2; Mean Tumor Area, Finish ([2]; 30 mg/kg daily by gavage, 4 weeks, control 54.8 to 914.0): 276.0 mm^2; Mean Tumor Area, Start ([2]; 300 ppm in diet, 6 weeks test): 57.4 mm^2; Mean Tumor Area, Finish ([2]; 300 ppm in diet, 6 weeks, control 49.6 to 752.1): 40.8 mm^2
CCC1(c2ccc(N)cc2)CCC(=O)NC1=O (centres unmarked) [aminoglutethimide]										effect in treatment of breast cancer [3]: beneficial effect in treatment of breast cancer
Clc1ccc(C(c2ccccc2)n2ccnc2)cc1 (centres unmarked) [1-[(4-chlorophenyl)phenylmethyl]-1H--imidazole]		114.8	68.4	0.92 femtomoles per milligram of protein	0.75 femtomoles per milligram of protein	0.00 femtomoles per milligram of protein	0.35 femtomoles per milligram of protein	0.11 femtomoles per milligram of protein		Mean Tumor Area, Start ([2]; 300 ppm in diet, 5 weeks test): 49.3 mm^2; Mean Tumor Area, Finish ([2]; 300 ppm in diet, 5 weeks, control 48.4 to 818.0): 467.0 mm^2
Clc1ccc(C(c2ccc(Cl)cc2)(c2cccnc2)n2ccnc2)cc1 [3-[4,4'-dichloro-α-(1-imidazolyl)diphenylmethyl]pyridine]	0.11 femtomoles per milligram of protein	118.0	96.8	1.25 femtomoles per milligram of protein	0.27 femtomoles per milligram of protein	0.75 femtomoles per milligram of protein	0.28 femtomoles per milligram of protein	0.24 femtomoles per milligram of protein		Mean Tumor Area, Start ([2]; 300 ppm in diet, 4 weeks test): 53.8 mm^2; Mean Tumor Area, Finish [2, 7]: 154.0 mm^2
O=[N+]([O-])c1ccc(C(c2ccc([N+](=O)[O-])cc2)n2ccnc2)cc1 [1-[bis(4-nitrophenyl)methyl]imidazole]	1.58 femtomoles per milligram of protein	105.0	110.8	0.92 femtomoles per milligram of protein	1.65 femtomoles per milligram of protein	0.28 femtomoles per milligram of protein	0.83 femtomoles per milligram of protein	0.94 femtomoles per milligram of protein		Mean Tumor Area, Start ([2]; 300 ppm in diet, 4 weeks test): 64.5 mm^2; Mean Tumor Area, Finish [2, 7]: 18.9 mm^2
O=[N+]([O-])c1ccc(Cn2ccnc2)cc1 [1-[(4-nitrophenyl)methyl]-1H--imidazole hydrochloride]	0.88 femtomoles per milligram of protein	185.3	147.2	1.16 femtomoles per milligram of protein	0.80 femtomoles per milligram of protein	0.79 femtomoles per milligram of protein	1.11 femtomoles per milligram of protein	1.19 femtomoles per milligram of protein	29	
c1ccc(C(c2ccccc2)(c2ccccc2)n2ccnc2)cc1 [1-tritylimidazole]	0.23 femtomoles per milligram of protein	135.0	122.6	0.75 femtomoles per milligram of protein	0.44 femtomoles per milligram of protein	0.64 femtomoles per milligram of protein	0.28 femtomoles per milligram of protein	0.21 femtomoles per milligram of protein	32	
CCOc1ccccc1C(C1CCCCC1)n1ccnc1 (centres unmarked) [1-[cyclohexyl(2-ethoxyphenyl)methyl]-1H--imidazole hydrochloride]	0.24 femtomoles per milligram of protein	149.0	96.6	1.30 femtomoles per milligram of protein	0.36 femtomoles per milligram of protein	1.11 femtomoles per milligram of protein	0.28 femtomoles per milligram of protein	0.20 femtomoles per milligram of protein	22	
C[C@]12C=CC(=O)C=C1CC[C@@H]1[C@@H]2CC[C@]2(C)OC(=O)CC[C@@H]12 [testolactone]										effect in treatment of breast cancer [3]: beneficial effect in treatment of breast cancer
Cl.Clc1cccc(Cn2ccnc2)c1Cl [1-(2,3-dichlorobenzyl)imidazole hydrochloride]	0.34 femtomoles per milligram of protein	139.4	127.3	2.09 femtomoles per milligram of protein	0.78 femtomoles per milligram of protein	1.12 femtomoles per milligram of protein	0.41 femtomoles per milligram of protein	0.23 femtomoles per milligram of protein	87	
Cc1nccn1C(c1ccc(Cl)cc1)(c1ccc(Cl)cc1)c1cccnc1 [3-[bis(4-chlorophenyl)(2-methyl-1H--imidazol-1-yl)methyl]pyridine]									< 50	Mean Steroid Concentration, estradiol [1, 8]: 0.89 femtomoles per milligram of protein; Mean Steroid Concentration, estriol [1, 8]: 0.38 femtomoles per milligram of protein; Mean Steroid Concentration, estrone [1, 8]: 0.06 femtomoles per milligram of protein; Mean Uterine Weight [1, 8]: 125.8 mg
FC(F)(F)c1cccc(C(c2ccc(Cl)cc2)(c2cccnc2)n2cncn2)c1 (centres unmarked) [3-[(4-chlorophenyl)-1H--1,2,4-triazol-1-yl-(3-trifluoromethylphenyl)methyl]pyridine]									98	Mean Steroid Concentration, estradiol [1, 8]: 0.88 femtomoles per milligram of protein; Mean Steroid Concentration, estriol [1, 8]: 0.06 femtomoles per milligram of protein; Mean Steroid Concentration, estrone [1, 8]: 0.01 femtomoles per milligram of protein; Mean Uterine Weight [1, 8]: 159.2 mg
